Assay results published in ChEMBL document CHEMBL1131771, “Structure-activity relationship analysis of substituted 4-quinolinamines, antagonists of immunostimulatory CpG-oligodeoxynucleotides” (Bioorg Med Chem Lett, 1999).

Key:
[1] = Acid dissociation constant was evaluated; format: ADME
[2] = Concentration required for half-maximal inhibition of CpG-ODN effect on thymidine uptake by WEHI 231 murine B-cells in the presence of alpha-sIgM.; format: functional, cell-based; conditions: Mus musculus, WEHI231

## CN(C)CCNC(=O)c1cc(-c2ccc3ccccc3c2)nc2ccccc12
[1]
  pKa: 2.9
[2]
  EC50: > 10000 nM

## CN(C)CCNc1cc(-c2ccc(C(F)(F)F)cc2)nc2ccccc12
[2]
  EC50: 155 nM

## CCN(CC)CCCC(C)Nc1ccnc2cc(Cl)ccc12 (stereo not given) [CHLOROQUINE]
[2]
  EC50: 110 nM

## CN(C)CCCNc1cc(-c2ccc3ccccc3c2)nc2ccccc12
[2]
  EC50: 11 nM

## CN(C)CCNc1cc(-c2cccc3ccccc23)nc2ccccc12
[2]
  EC50: 39.8 nM

## CC(C)(C)OC(=O)NCCNc1cc(-c2ccc3ccccc3c2)nc2ccccc12
[2]
  EC50: 570 nM

## CN(C)CCNc1cc(/C=C/c2ccccc2)nc2ccccc12
[2]
  EC50: 6.5 nM

## Oc1c(CN2CCCC2)cc(Nc2cc(-c3ccc4ccccc4c3)nc3ccccc23)cc1CN1CCCC1
[2]
  EC50: 1.2 nM

## CN(C)CCNc1cc(-c2ccc3ccc4ccccc4c3c2)nc2ccccc12
[2]
  EC50: 11 nM

## CCN(CC)CCCC(C)Nc1cc(-c2ccccc2)nc2cc(Cl)ccc12 (stereo not given)
[2]
  EC50: 51.3 nM

## CN(C)CCOc1cc(-c2ccc3ccccc3c2)nc2ccccc12
[1]
  pKa: 6.1
[2]
  EC50: 478 nM

## Oc1c(CN2CCCCC2)cc(Nc2cc(-c3ccc4ccccc4c3)nc3ccccc23)cc1CN1CCCCC1
[2]
  EC50: 1.5 nM

## CC(Nc1cc(-c2ccc3ccccc3c2)nc2ccccc12)C(O)c1ccccc1 (stereo not given)
[2]
  EC50: 1000 nM

## CN(C)CCCCNc1ccnc2ccccc12
[2]
  EC50: 316 nM

## CC(CCCC(C)(C)O)Nc1cc(-c2ccc3ccccc3c2)nc2ccccc12 (stereo not given)
[2]
  EC50: 1150 nM

## OCCc1ccc(Nc2cc(-c3ccc4ccccc4c3)nc3ccccc23)cc1
[2]
  EC50: 510 nM

## CN(C)CCCCNc1cc(-c2ccc3ccccc3c2)nc2ccccc12
[2]
  EC50: 4 nM

## CN(C)CCNc1cc(-c2ccc3ccccc3c2)nc2ccccc12
[2]
  EC50: 9.1 nM

## CN(C)CCSc1cc(-c2ccc3ccccc3c2)nc2ccccc12
[2]
  EC50: 2400 nM

## CCCCc1ccc(Nc2cc(-c3ccc4ccccc4c3)nc3ccccc23)cc1
[2]
  EC50: > 10000 nM

## Cc1ccc(-c2cc(NCCCN(C)C)c3ccccc3n2)cc1
[2]
  EC50: 11.5 nM

## OCCOCCNc1cc(-c2ccc3ccccc3c2)nc2ccccc12
[2]
  EC50: 330 nM

## Oc1ccc(Nc2cc(-c3ccc4ccccc4c3)nc3ccccc23)cc1
[2]
  EC50: 320 nM

## Cc1ccc(-c2cc(NCCN(C)C)c3ccccc3n2)cc1
[2]
  EC50: 12.3 nM

## Oc1c(CN2CCOCC2)cc(Nc2cc(-c3ccc4ccccc4c3)nc3ccccc23)cc1CN1CCOCC1
[2]
  EC50: 10 nM

## OCCCCCCNc1cc(-c2ccc3ccccc3c2)nc2ccccc12
[2]
  EC50: 170 nM

## CN(C)CCCNc1ccnc2ccccc12
[2]
  EC50: 4400 nM

## O=C(CCCO)NCCCN1CCN(CCCNc2cc(-c3ccc4ccccc4c3)nc3ccccc23)CC1
[2]
  EC50: 25.1 nM

## CN1CCN(Cc2cc(Nc3cc(-c4ccc5ccccc5c4)nc4ccccc34)cc(CN3CCN(C)CC3)c2O)CC1
[1]
  pKa: 6.9
[2]
  EC50: 0.24 nM

## CN(C)CCCCCCNc1cc(-c2ccc3ccccc3c2)nc2ccccc12
[2]
  EC50: 5.9 nM

## CN(C)CCN(C)c1cc(-c2ccc3ccccc3c2)nc2ccccc12
[1]
  pKa: 6.2
[2]
  EC50: 416 nM
